13 compounds from patent US6013651A, “Meta-azacyclic amino benzoic acid compounds and derivatives thereof” (G. D. Searle & Co., priority 1998, dated 2000) can be followed below.

Structures are written as SMILES. Counter-ions that a name gives are not always drawn. Like-named read-outs stand apart in the source and are kept apart here.

In assay [1] the target is T1, human vitronectin receptor (αv β3) (Homo sapiens, UniProt P05106+P06756).
T1 construct: purified from human placenta; from tissue; host or cells: human placenta
T1 sequence (P06756 31-889 limits assumed): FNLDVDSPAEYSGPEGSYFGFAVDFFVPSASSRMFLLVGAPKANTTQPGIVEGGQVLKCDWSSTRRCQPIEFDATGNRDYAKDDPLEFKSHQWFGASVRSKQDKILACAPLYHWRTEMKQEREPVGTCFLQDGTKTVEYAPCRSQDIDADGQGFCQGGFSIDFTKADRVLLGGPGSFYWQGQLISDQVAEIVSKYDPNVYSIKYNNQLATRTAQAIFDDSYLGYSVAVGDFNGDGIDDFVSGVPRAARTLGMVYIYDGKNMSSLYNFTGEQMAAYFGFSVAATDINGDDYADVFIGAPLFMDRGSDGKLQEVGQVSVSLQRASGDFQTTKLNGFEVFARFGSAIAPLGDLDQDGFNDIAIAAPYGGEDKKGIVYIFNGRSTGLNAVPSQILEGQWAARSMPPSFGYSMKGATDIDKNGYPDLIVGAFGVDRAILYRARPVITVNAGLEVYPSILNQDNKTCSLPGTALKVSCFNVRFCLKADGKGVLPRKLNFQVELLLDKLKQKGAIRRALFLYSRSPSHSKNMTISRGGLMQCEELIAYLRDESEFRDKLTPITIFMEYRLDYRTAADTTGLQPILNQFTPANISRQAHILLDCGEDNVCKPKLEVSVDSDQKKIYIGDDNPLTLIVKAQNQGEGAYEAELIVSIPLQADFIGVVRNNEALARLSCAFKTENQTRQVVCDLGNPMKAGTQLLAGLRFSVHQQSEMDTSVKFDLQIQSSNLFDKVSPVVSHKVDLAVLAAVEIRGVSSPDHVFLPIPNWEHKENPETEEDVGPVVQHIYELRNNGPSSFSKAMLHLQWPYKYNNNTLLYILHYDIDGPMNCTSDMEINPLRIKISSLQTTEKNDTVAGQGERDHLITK
T1 sequence (P06756 891-1048 limits assumed): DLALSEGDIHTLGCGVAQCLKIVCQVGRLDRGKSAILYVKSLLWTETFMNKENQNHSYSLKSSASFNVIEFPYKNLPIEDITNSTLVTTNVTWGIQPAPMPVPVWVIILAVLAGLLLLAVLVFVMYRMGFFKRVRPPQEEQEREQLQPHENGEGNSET
T1 sequence (P05106 27-788): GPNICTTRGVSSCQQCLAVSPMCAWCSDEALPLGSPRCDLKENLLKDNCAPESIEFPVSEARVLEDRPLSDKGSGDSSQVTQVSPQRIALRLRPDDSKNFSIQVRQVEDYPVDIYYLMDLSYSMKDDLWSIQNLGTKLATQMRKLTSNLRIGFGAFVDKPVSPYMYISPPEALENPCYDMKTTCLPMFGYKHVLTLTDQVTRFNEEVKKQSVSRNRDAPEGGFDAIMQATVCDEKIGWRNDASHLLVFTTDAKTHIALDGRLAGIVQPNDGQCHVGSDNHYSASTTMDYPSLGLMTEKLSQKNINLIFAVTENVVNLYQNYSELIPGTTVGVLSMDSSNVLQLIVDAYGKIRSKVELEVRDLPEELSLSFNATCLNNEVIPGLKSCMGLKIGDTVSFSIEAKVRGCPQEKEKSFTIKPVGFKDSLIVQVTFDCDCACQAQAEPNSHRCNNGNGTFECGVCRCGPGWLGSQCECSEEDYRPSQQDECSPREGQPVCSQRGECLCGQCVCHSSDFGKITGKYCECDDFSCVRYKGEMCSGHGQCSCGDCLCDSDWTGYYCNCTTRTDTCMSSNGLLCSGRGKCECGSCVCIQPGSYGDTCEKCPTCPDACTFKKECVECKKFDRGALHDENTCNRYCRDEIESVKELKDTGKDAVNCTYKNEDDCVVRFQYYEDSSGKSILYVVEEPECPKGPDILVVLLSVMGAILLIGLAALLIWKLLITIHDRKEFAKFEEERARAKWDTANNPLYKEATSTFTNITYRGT
Briefly: Vitronectin adhesion assay, solid phase receptor assay (inhibition of biotinylated vitronectin binding to purified αvβ3). The method, then:
Human vitronectin receptor (αv β3) was purified from human placenta as previously described [Pytela et al., Methods in Enzymology, 144:475-489 (1987)]. Human vitronectin was purified from fresh frozen plasma as previously described [Yatohgo et al., Cell Structure and Function, 13:281-292 (1988)]. Biotinylated human vitronectin was prepared by coupling NHS-biotin from Pierce Chemical Company (Rockford, Ill.) to purified vitronectin as previously described [Charo et al., J. Biol. Chem., 266(3):1415-1421 (1991)]. Assay buffer, OPD substrate tablets, and RIA grade BSA were obtained from Sigma (St. Louis, Mo.). Anti-biotin antibody was obtained from Calbiochem (La Jolla, Calif.). Linbro microtiter plates were obtained from Flow Labs (McLean, Va.). ADP reagent was obtained from Sigma (St. Louis, Mo.).
This assay was essentially the same as previously reported [Niiya et al., Blood, 70:475-483 (1987)]. The purified human vitronectin receptor (αv β3) was diluted from stock solutions to […] in tris-buffered saline containing 1.0 mM Ca^++, Mg^++, and Mn^++, pH 7.4 (TBS^+++). The diluted receptor was immediately transferred to Linbro microtiter plates at 100 µL/well (100 ng receptor/well). The plates were sealed and incubated overnight at 4° C. to allow the receptor to bind to the wells. All remaining steps were at room temperature. The assay plates were emptied and 200 µL of 1% RIA grade BSA in TBS^+++ (TBS^+++ /BSA) were added to block exposed plastic surfaces. Following a 2 hour incubation, the assay plates were washed with TBS^+++ using a 96 well plate washer. Logarithmic serial dilution of the test compound and controls were made starting at a stock concentration of 2 mM and using 2 nM biotinylated vitronectin in TBS^+++ /BSA as the diluent. This premixing of labeled ligand with test (or control) ligand, and subsequent transfer of 50 µL aliquots to the assay plate was carried out with a CETUS Propette robot; the final concentration of the labeled ligand was 1 nM and the highest concentration of test compound was 1.0×10^-4 M. The competition occurred for two hours after which all wells were washed with a plate washer as before. Affinity purified horseradish peroxidase labeled goat anti-biotin antibody was diluted 1:3000 in TBS^+++ /BSA and 125 µL were added to each well. After 30 minutes, the plates were washed and incubated with OPD/H2 O substrate in 100 mM/L Citrate buffer, pH 5.0. The plate was read with a microtiter plate reader at a wavelength of 450 nm and when the maximum-binding control wells reached an absoround bottomance of about 1.0, the final A450 were recorded for analysis. The data were analyzed using a macro written for use with the EXCEL spreadsheet program. The mean, standard deviation, and % CV were determined for duplicate concentrations. The mean A450 values were normalized to the mean of four maximum-binding controls (no competitor added)(B-MAX). The normalized values were subjected to a four parameter curve fit algorithm [Rodbard et al., Int.

The target in assay [2] is T2, human fibrinogen receptor (αIIb β3) (Homo sapiens, UniProt P05106+P08514).
T2 construct: purified from outdated platelets; from tissue; host or cells: outdated human platelets
T2 sequence (P08514 32-887 limits assumed): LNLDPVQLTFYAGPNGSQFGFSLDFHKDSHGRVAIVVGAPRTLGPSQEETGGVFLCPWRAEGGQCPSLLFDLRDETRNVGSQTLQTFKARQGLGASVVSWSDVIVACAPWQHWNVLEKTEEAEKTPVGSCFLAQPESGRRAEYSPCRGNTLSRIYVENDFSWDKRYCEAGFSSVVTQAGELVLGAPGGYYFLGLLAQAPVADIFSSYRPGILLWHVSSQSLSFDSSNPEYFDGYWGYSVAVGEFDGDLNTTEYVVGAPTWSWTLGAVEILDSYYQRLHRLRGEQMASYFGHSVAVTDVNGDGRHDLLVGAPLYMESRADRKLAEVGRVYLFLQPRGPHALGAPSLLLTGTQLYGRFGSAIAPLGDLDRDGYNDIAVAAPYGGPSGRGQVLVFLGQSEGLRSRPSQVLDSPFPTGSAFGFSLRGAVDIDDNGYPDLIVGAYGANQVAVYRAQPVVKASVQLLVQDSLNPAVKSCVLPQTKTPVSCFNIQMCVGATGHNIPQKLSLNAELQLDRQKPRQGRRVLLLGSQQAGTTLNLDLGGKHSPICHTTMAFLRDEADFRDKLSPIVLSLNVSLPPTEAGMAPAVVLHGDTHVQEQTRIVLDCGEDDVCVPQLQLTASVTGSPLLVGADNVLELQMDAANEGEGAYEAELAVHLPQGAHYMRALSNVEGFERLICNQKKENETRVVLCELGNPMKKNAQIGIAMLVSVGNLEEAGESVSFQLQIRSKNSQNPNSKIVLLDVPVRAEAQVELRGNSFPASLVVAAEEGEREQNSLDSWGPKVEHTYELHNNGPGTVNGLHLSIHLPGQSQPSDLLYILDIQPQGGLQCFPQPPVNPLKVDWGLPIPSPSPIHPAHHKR
T2 sequence (P08514 891-1039 limits assumed): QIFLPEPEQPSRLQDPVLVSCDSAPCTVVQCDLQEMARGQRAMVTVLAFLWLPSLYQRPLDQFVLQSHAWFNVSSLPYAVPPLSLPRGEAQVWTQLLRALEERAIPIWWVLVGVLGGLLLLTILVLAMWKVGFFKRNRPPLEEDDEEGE
T2 sequence (P05106 27-788): as the sequence (P05106 27-788) above
The assay is described as follows: Purified IIb/IIIa receptor assay, solid phase receptor assay (inhibition of biotinylated vitronectin binding). The settings on record: 1 nM biotinylated human vitronectin, pH 7.4, 2 h competition. An excerpt: Human fibrinogen receptor (αIIb β3) was purified from outdated platelets. (Pytela, R., Pierschbacher, M. D., Argraves, S., Suzuki, S., and Rouslahti, E. "Arginine-Glycine-Aspartic acid adhesion receptors", Methods in Enzymology 144(1987):475-489.) Human vitronectin was purified from fresh frozen plasma as described in Yatohgo, T., Izumi, M., Kashiwagi, H., and Hayashi, M., "Novel purification of vitronectin from human plasma by heparin affinity chromatography," Cell Structure and Function 13(1988):281-292. Biotinylated human vitronectin was prepared by coupling NHS-biotin from Pierce Chemical Company (Rockford, Il.) to purified vitronectin as previously described. (Charo, I. F., Nannizzi, L., Phillips, D. R., Hsu, M. A., Scaround bottomorough, R. M., "Inhibition of fibrinogen binding to GP IIIb/IIIa by a GP IIIa peptide", J. Biol. Chem. 266(3)(1991): 1415-1421.) Assay buffer, OPD substrate tablets, and RIA grade BSA were obtained from Sigma (St. Louis, Mo.). Anti-biotin antibody was obtained from Calbiochem (La Jolla, Calif.). Linbro microtiter plates were obtained from Flow Labs (McLean, Va.). ADP reagent was obtained from Sigma (St. Louis, Mo.).
This assay is essentially the same reported in Niiya, K., Hodson, E., Bader, R., Byers-Ward, V. Koziol, J. A., Plow, E. F. and Ruggeri, Z. M., "Increased surface expression of the membrane glycoprotein IIb/IIIa complex induced by platelet activation: Relationships to the binding of fibrinogen and platelet aggregation", Blood 70(1987):475-483. The purified human fibrinogen receptor (αIIb β3) was diluted from stock solutions to 1.0 μg/mL in Tris-buffered saline containing 1.0 mM Ca^++, Mg^++, and Mn^++, pH 7.4 (TBS^+++). The diluted receptor was immediately transferred to Linbro microtiter plates at 100 μL/well (100 ng receptor/well). The plates were sealed and incubated overnight at 4° C. to allow the receptor to bind to the wells. All remaining steps were at room temperature. The assay plates were emptied and 200 μL of 1% RIA grade BSA in TBS^+++ (TBS^+++ /BSA) were added to block exposed plastic surfaces. Following a 2 hour incubation, the assay plates were washed with TBS^+++ using a 96 well plate washer. Logarithmic serial dilution of the test compound and controls were made starting at a stock concentration of 2 mM and using 2 nM biotinylated vitronectin in TBS^+++ /BSA as the diluent. This premixing of labeled ligand with test (or control) ligand, and subsequent transfer of 50 μL aliquots to the assay plate was carried out with a CETUS Propette robot; the final concentration of the labeled ligand was 1 nM and the highest concentration of test compound was 1.0×10^-4 M. The competition occurred for two hours after which all wells were washed with a plate washer as before. Affinity purified horseradish peroxidase labeled goat anti-biotin antibody was diluted 1:3000 in TBS^+++ /BSA and 125 μL were added to each well. After 30 minutes, the plates were washed and incubated with […]/H2 O2 substrate in 100 mM/L citrate buffer, pH 5.0. The plate was read with a microtiter plate reader at a wavelength of 450 nm and when the maximum-binding control wells reached an absoround bottomance of about 1.0, the final A450 were recorded for analysis. The data were analyzed using a macro written for use with the EXCEL™ spreadsheet program. The mean, standard deviation, and % CV were determined for duplicate concentrations. The mean A450 values were normalized to the mean of four maximum-binding controls (no competitor added)(B-MAX). The normalized values were subjected to a four parameter curve fit algorithm, [Robard et al., Int.

The mark [3] stands for this setting: 1 nM biotinylated human vitronectin, purified receptor, pH 7.4, 2 h competition, read-out: αv β3 IC50.

With `O=C(O)CC(NC(=O)CNC(=O)c1cc(O)cc(NC2=NCC(O)CN2)c1)c1cc(Cl)cc(Br)c1O` (racemic) [Example 1, (±) 3-bromo-5-chloro-2-hydroxy-β-[[2-[[[3-hydroxy-5-[(1,4,5,6-tetrahydro-5-hydroxypyrimidin-2-yl)amino]phenyl]carbonyl]amino]acetyl]amino]benzenepropanoic acid, trifluroacetate salt], the half-inhibitory concentration (IC50) in assay [1] (setting [3]) was 0.88 nM; in assay [2], 310 nM.
On to `O=C(O)C[C@H](NC(=O)CNC(=O)c1cc(O)cc(NC2=NCC(O)CN2)c1)c1cc(Cl)cc(Br)c1O` (stereo partly shown) [9 · HCl], for which the IC50 in assay [1] (setting [3]) stood at 0.82 nM; in assay [2], 226 nM.
Take `O=C(O)CC(NC(=O)CNC(=O)c1cc(O)cc(NC2=NCC(O)CN2)c1)c1cc(Cl)cc(Cl)c1O` (stereo not shown) [Example 2]: the IC50 worked out at 1.04 nM in assay [1] (setting [3]) and 430 nM in assay [2].
Consider `O=C(O)CC(NC(=O)CNC(=O)c1cc(O)cc(NC2=NCC(O)CN2)c1)c1cc(Br)cc(I)c1O` (stereo not shown) [Example 3], for which the IC50 turned out to be 23.7 nM in assay [1] (setting [3]) and 2440 nM in assay [2].
For `O=C(O)CC(NC(=O)CNC(=O)c1cc(O)cc(NC2=NCC(O)CN2)c1)c1cc(Br)cc(Cl)c1O` (stereo not shown) [Example 4], the 50% inhibitory concentration (IC50) came out at 2.02 nM in assay [1] (setting [3]) and 575 nM in assay [2].
As for `O=C(O)CC(NC(=O)CNC(=O)c1cc(O)cc(NC2=NCC(O)CN2)c1)c1cc(Cl)cc(I)c1O` (stereo not shown) [Example 5], the IC50 in assay [1] (setting [3]) stood at 2.13 nM; in assay [2], 744 nM.
As for `O=C(O)CC(NC(=O)CNC(=O)c1cc(O)cc(NC2=NCC(O)CN2)c1)c1cc(Br)cc(Br)c1O` (stereo not shown) [Example 6], the values for the IC50 in assay [1] (setting [3]) and in assay [2] were 6.46 nM and 919 nM, respectively.
Take `O=C(O)C[C@H](NC(=O)CNC(=O)c1cc(O)cc(N=C2NCC(O)CN2)c1)c1cc(Br)cc(Cl)c1O` (stereo partly shown) [Example 7]: the IC50 in assay [1] (setting [3]) was 1.01 nM; in assay [2] it was 262 nM.
With `O=C(O)C[C@H](NC(=O)CNC(=O)c1cc(O)cc(N=C2NCC(O)CN2)c1)c1cc(Cl)cc(Cl)c1O` (stereo partly drawn) [Example 8, (S) 3,5-dichloro-2-hydroxy-β-[[2-[[[3-hydroxy-5-[(1,4,5,6-tetrahydro-5-hydroxypyrimidin-2-yl)amino]phenyl]carbonyl]amino]acetyl]amino]-benzenepropanoic acid, monohydrochloride monohydrate], the IC50 in assay [1] (setting [3]) is 0.4 nM; in assay [2] it was 131 nM.
Take `O=C(O)C[C@H](NC(=O)CNC(=O)c1cc(O)cc(NC2=NCC(O)CN2)c1)c1cc(Cl)cc(Br)c1O` (stereo partly drawn) [Example 9, (S) 3-bromo-5-chloro-2-hydroxy-β-[[2-[[[3-hydroxy-5-[(1,4,5,6-tetrahydro-5-hydroxypyrimidin-2-yl)amino]phenyl]carbonyl]amino]acetyl]amino]-benzenepropanoic acid, trifluoroacetate salt]: the values for the IC50 in assay [1] (setting [3]) and in assay [2] were 0.37 nM and 388 nM, respectively.
The like results for `O=C(O)C[C@H](NC(=O)CNC(=O)c1cc(O)cc(NC2=NCC(O)CN2)c1)c1cc(Br)cc(Br)c1O` (stereo partly shown) [Example 10] were, in that order, 2.26 nM and 641 nM.
As to `O=C(O)C[C@H](NC(=O)CNC(=O)c1cc(O)cc(NC2=NCC(O)CN2)c1)c1cc(Br)cc(I)c1O` (stereo partly shown) [Example 12], the IC50 in assay [1] (setting [3]) worked out at 9.59 nM; in assay [2], 1060 nM.
On to `N=C(N)NCCCCC(=O)NCC(=O)NC(CC(=O)O)c1cccnc1` (stereo not drawn) [β-[[2-[[5-[(aminoiminomethyl)-amino]-1-oxopentyl]amino]-1-oxoethyl]amino]-3-pyridinepropanoic acid, reference compound], for which the IC50 in assay [1] (positive control included on each plate, read-out: αv β3 antagonist IC50 of positive control) was in the range of 3 to 10 nM.
